Data published in ChEMBL document CHEMBL4043268 (Bioorg Med Chem, 2017).
The source made the active and inactive calls. No cut-off for these calls is given here.

What was measured:
Acetylcholinesterase [1] = target: T1, Acetylcholinesterase (Homo sapiens, UniProt P22303); assay: Inhibition of human erythrocyte AChE at 20 uM using acetylthiocholine iodide as substrate preincubated for 10 mins followed by substrate addition Ellman's method
[2] = target: Cholinesterase (Equus caballus) (UniProt P81908); assay: Inhibition of equine serum BChE at 20 uM using butyrylthiocholine iodide as substrate preincubated for 10 mins followed by substrate addition by Ellman's method
Chain of Cholinesterase (Equus caballus) (P81908 whole entry): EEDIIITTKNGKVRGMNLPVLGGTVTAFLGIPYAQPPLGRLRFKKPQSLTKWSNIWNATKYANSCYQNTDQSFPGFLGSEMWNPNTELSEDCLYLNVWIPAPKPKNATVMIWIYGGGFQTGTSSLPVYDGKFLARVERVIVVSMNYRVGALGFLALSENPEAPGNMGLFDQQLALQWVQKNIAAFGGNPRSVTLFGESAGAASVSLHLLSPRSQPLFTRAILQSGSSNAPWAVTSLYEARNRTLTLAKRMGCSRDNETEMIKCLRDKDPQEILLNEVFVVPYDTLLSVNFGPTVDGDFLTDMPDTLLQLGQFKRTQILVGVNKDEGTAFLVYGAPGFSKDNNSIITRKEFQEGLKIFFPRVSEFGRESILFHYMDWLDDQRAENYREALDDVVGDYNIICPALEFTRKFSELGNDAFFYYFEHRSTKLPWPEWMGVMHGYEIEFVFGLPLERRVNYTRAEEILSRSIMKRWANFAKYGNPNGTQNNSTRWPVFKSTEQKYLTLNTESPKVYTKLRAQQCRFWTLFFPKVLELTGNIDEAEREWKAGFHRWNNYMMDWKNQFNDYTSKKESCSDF

Cholinesterase [3] = target: T2, Cholinesterase (Equus caballus, UniProt P81908)
T2 sequence (P81908 whole entry): as above
Description: Inhibition of equine serum BChE using butyrylthiocholine iodide as substrate preincubated for 10 mins followed by substrate addition by Ellman's method

Acetylcholinesterase [4] = target: T1, Acetylcholinesterase
Description: Inhibition of human erythrocyte AChE using acetylthiocholine iodide as substrate preincubated for 10 mins followed by substrate addition by Ellman's method

Liver carboxylesterase [5] = target: T3, Liver carboxylesterase (Sus scrofa, UniProt Q29550)
T3 sequence (Q29550 whole entry): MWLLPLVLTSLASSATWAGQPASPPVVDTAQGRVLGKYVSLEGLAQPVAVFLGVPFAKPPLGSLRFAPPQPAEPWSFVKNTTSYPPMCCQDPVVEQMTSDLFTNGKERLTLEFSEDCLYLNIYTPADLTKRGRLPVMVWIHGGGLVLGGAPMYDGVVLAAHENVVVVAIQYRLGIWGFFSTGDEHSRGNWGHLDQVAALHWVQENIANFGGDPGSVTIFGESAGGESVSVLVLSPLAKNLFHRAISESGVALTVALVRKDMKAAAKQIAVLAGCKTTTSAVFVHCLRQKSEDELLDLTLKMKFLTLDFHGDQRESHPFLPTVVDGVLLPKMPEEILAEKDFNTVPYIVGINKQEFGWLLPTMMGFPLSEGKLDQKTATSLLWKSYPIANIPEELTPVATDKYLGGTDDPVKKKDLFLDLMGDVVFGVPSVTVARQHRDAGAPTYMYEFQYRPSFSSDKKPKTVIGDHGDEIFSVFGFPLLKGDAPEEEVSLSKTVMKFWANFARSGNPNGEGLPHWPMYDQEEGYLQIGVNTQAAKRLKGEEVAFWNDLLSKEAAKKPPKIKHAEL
Description: Inhibition of pig liver carboxylesterase using 4-nitrophenol acetate as substrate by spectrophotometric analysis

Liver carboxylesterase [6] = target: T3, Liver carboxylesterase; assay: in vitro; settings: pig, probe 4-nitrophenol acetate
Description: Inhibition of pig liver carboxylesterase at 20 uM using 4-nitrophenol acetate as substrate by spectrophotometric analysis

Acetylcholinesterase [7] = target: T1, Acetylcholinesterase; assay: Non-competitive inhibition of human […] AChE using acetylthiocholine iodide as substrate preincubated for 10 mins followed by substrate addition by Lineweaver-Burk double reciprocal kinetic plot analysis
[8] = target: Cholinesterase (Equus caballus) (UniProt P81908); assay: Non-competitive inhibition of equine serum BChE using butyrylthiocholine iodide as substrate preincubated for 10 mins followed by substrate addition by Lineweaver-Burk double reciprocal kinetic plot analysis
Acetylcholinesterase [9] = target: T1, Acetylcholinesterase; remark: listed apart in the source
Description: Competitive inhibition of human serum AChE using acetylthiocholine iodide as substrate preincubated for 10 mins followed by Lineweaver-Burk double reciprocal kinetic plot analysis

Cholinesterase [10] = target: T2, Cholinesterase; remark: listed apart in the source
Description: Competitive inhibition of equine serum BChE using butyrylthiocholine iodide as substrate preincubated for 10 mins followed by substrate addition by Lineweaver-Burk double reciprocal kinetic plot analysis

T1 sequence (P22303 whole entry): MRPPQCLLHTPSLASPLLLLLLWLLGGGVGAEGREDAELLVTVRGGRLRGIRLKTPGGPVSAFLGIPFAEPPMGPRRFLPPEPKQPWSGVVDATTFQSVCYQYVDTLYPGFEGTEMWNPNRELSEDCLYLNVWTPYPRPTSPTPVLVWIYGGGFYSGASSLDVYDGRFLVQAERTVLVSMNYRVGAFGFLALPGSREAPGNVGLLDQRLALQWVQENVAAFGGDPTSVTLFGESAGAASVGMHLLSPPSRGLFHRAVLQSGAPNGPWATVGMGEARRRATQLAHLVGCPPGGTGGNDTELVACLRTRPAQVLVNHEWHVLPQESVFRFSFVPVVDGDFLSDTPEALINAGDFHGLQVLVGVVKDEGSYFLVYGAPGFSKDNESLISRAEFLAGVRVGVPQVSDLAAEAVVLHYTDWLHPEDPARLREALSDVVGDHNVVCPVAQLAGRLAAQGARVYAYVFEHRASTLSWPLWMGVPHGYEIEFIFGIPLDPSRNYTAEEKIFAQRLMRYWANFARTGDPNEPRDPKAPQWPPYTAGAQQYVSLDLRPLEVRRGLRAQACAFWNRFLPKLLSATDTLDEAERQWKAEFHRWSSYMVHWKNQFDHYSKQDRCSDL

SMILES	inhibition (Acetylcholinesterase [1])	inhibition [2]	IC50 (Cholinesterase [3])	IC50 (Acetylcholinesterase [4])	IC50 (Liver carboxylesterase [5])	inhibition at 20 µM (Liver carboxylesterase [6])	alphaKi (Acetylcholinesterase [7])	alphaKi [8]	Ki (Acetylcholinesterase [9])	Ki (Cholinesterase [10])
CN1c2ccccc2C(c2ccc(NC(=O)C(F)(F)F)cc2)c2ccccc21	inactive	7.1%	> 20 µM							
CCCCNc1c2ccccc2[n+](C)c2ccccc12	16.8%		15.7 µM	> 20 µM						
CC(=O)Nc1ccc(-c2c3ccccc3[n+](C)c3ccccc23)cc1			35.1 µM	54.3 µM						
C[n+]1c2ccccc2c(-c2ccccc2)c2ccccc21			51.9 µM	61.3 µM	> 20 µM	22.6%				
C[n+]1c2ccccc2c(-c2ccc(NC(=O)C(F)(F)F)cc2)c2ccccc21		7.7%	> 20 µM	36.5 µM	> 20 µM	7.2%				
Cc1ccc(C2c3ccccc3N(C)c3ccccc32)cc1	5.1%	10.6%	> 20 µM	> 20 µM						
O=[N+]([O-])c1ccc(OP(=O)(O)Oc2ccc([N+](=O)[O-])cc2)cc1	inactive	inactive								
C[n+]1c2ccccc2c(-c2cccs2)c2ccccc21			58.3 µM	40.9 µM	> 20 µM	6.1%				
C[n+]1c2ccccc2c(-c2ccc(N)cc2)c2ccccc21			39.1 µM	7.62 µM	> 20 µM	18.6%	8.95 µM	55.4 µM	2.66 µM	19 µM
COc1ccc(-c2c3ccccc3[n+](C)c3ccccc23)cc1			58.5 µM	13.7 µM	> 20 µM	7.8%				
C[n+]1c2ccccc2c(N)c2ccccc21			4.83 µM	39.5 µM						
CN1c2ccccc2C(n2cnc([N+](=O)[O-])n2)c2ccccc21			1.17 µM	16.7 µM	> 20 µM	10.6%				
CN1c2ccccc2C(n2nnc3ccccc32)c2ccccc21			1.08 µM	12.4 µM	> 20 µM	15.3%	17.9 µM	2.13 µM	6.43 µM	0.49 µM
CN1c2ccccc2C(c2cc(C(C)(C)C)c(O)c(C(C)(C)C)c2)c2ccccc21	inactive	10.4%	> 20 µM		> 20 µM	23.6%				
COc1ccc(C2c3ccccc3N(C)c3ccccc32)cc1	9.3%	11.6%	> 20 µM	> 20 µM						
CN1c2ccccc2C(c2ccc(N)cc2)c2ccccc21	inactive		66.5 µM							

SMILES	inhibition (Acetylcholinesterase [1])	inhibition [2]	IC50 (Cholinesterase [3])	IC50 (Acetylcholinesterase [4])	IC50 (Liver carboxylesterase [5])	inhibition at 20 µM (Liver carboxylesterase [6])	alphaKi (Acetylcholinesterase [7])	alphaKi [8]	Ki (Acetylcholinesterase [9])	Ki (Cholinesterase [10])
CN1c2ccccc2C(n2c3ccccc3c3ccccc32)c2ccccc21	5.6%		13 µM	> 20 µM						
CN1c2ccccc2C(N2CCSCC2)c2ccccc21			0.84 µM	11.8 µM	> 20 µM	5%		1.31 µM	3.75 µM	0.35 µM
C[n+]1c2ccccc2c(-c2c(O)ccc3ccccc23)c2ccccc21	7.3%		50.8 µM	> 20 µM	> 20 µM	8.9%				
CN1c2ccccc2C(c2cccs2)c2ccccc21	inactive	12.3%	> 20 µM		> 20 µM	11.1%				
C[n+]1c2ccccc2c(-c2cc(C(C)(C)C)cc(C(C)(C)C)c2O)c2ccccc21	16.7%		2.74 µM	> 20 µM	> 20 µM	31.2%		4.75 µM		1.46 µM
CN1c2ccccc2C(c2ccccc2)c2ccccc21	inactive		62.1 µM							
CN1c2ccccc2C(c2cc(C(C)(C)C)cc(C(C)(C)C)c2O)c2ccccc21	inactive	13.4%	> 20 µM							
C[n+]1c2ccccc2c(-c2ccc(F)cc2)c2ccccc21		8.2%	> 20 µM	32.3 µM	> 20 µM	5.9%				
CCN(CC)c1ccc(-c2c3ccccc3[n+](C)c3ccccc23)cc1			3.35 µM	25.2 µM			28 µM	4.22 µM	13.2 µM	0.94 µM
Cc1cc(-c2c3ccccc3[n+](C)c3ccccc23)cc(C)c1C		14.2%	> 20 µM	60.1 µM						
Cc1ccc(-c2c3ccccc3[n+](C)c3ccccc23)cc1			40.7 µM	41.5 µM	> 20 µM	16.3%				
CN1c2ccccc2C(n2cncn2)c2ccccc21			0.81 µM	18.8 µM	> 20 µM	5.4%		0.72 µM	3.34 µM	0.16 µM
CN1c2ccccc2C(N2CCOCC2)c2ccccc21			0.46 µM	12.3 µM	> 20 µM	16.4%	19.6 µM	1.17 µM	4.01 µM	0.41 µM
CC(=O)Nc1ccc(C2c3ccccc3N(C)c3ccccc32)cc1	inactive	10.8%	> 20 µM		> 20 µM	7.2%				
Cc1cc(-c2c3ccccc3[n+](C)c3ccccc23)cc(C)c1O			61.8 µM	49.8 µM						
CN1c2ccccc2C(c2ccc(F)cc2)c2ccccc21	inactive	11.1%	> 20 µM							
